Among the data in US20070249648A1, “Novel Diazaspiroalkanes and Their Use for Treatment of Ccr8 Mediated Diseases” (priority 2003, published 2007) are IC50 values, retold here.

Structures can show the parent of a compound that is named as a salt.

This assay concerns the target T1, human recombinant chemokine CCR8 receptor (Homo sapiens, UniProt P51685).
T1 construct: purchased Euroscreen ES-136-M; host or cells: CHO-K1 cells (membrane preparation)
The assay can be described thus: CCL1 SPA Binding Assay. The note with it: 125I CCL1 (30 pM) binding to membranes from CHO-K1 cells transfected with CCR8, Wheat Germ Agglutinin SPA beads; typical data. As to the method: Membranes from CHO-K1 cells transfected with human recombinant chemokine CCR8 receptor (ES-136-M) were purchased from Euroscreen. Membrane preparations are stored at −70C in 7.5 mM Tris-Cl pH 7.5, 12.5 mM MgCl2, 0.3 mM EDTA, 1 mM EGTA, 250 mM sucrose until used.
The CCR8 membranes ([…]) were preincubated with Wheat Germ Agglutinin SPA beads (4.05 mg/ml) in assay buffer (50 mM HEPES, 1 mM CaCl2x2H2O, 5 mM MgCl2x6H2O, 75 mM NaCl, 0.1% BSA) at pH=7.4 for 2 hours on ice. A 10-point dose-response curve (final concentrations 50 μM, 16.7 μM, 5.6 μM, 1.9 μM, 0.62 μM, 0.21 μM, 0.069 μM, 0.023 μM) was prepared by diluting compounds by serial dilution 1:3 in DMSO. In the screening plate (Polystyrene NBS plates, Costar Corning 3604) 1 μl from the DMSO solutions of compounds was transferred into each well. 1 μl of DMSO was added to the blank control wells and 1 μl unlabeled CCL1 (300 nM) was added to background control wells. 50 μl of the SPA bead-membrane mixture was added into each well. Finally, 50 μl (30 pM) ^125I CCL1 (2000 Ci/mM) was added to each well. Plates were then incubated at RT with shaking (700 rpm) for 90 minutes followed by 30 minutes at RT without shaking. The plate was read in a Wallac MicroBeta counter for 2 minutes/well.

T1 sequence (P51685 whole entry): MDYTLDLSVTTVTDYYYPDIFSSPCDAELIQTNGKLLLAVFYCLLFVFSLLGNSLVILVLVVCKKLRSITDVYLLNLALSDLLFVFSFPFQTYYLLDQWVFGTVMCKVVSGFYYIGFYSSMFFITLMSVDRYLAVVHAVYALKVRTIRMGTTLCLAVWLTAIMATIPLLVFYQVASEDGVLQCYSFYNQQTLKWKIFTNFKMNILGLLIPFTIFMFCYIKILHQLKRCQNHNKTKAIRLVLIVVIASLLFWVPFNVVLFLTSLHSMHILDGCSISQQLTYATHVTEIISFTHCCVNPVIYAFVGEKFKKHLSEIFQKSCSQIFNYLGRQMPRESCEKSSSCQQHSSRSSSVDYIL

For orientation: IC50 means the concentration that inhibits the measured activity by half. Regarding `CCCOc1ccccc1CN1CCC2(CC1)CCN(C(=O)c1ccccc1)CC2` [3-benzoyl-9-(2-propoxybenzyl)-3,9-diazaspiro[5.5]undecane trifluoroacetate], the IC50 is 165 nM. Under `Cc1noc(C)c1COc1ccccc1CN1CCC2(CC1)CCN(C(=O)c1ccccc1)CC2` [3-benzoyl-9-{2-[(3,5-dimethylisoxazol-4-yl)methoxy]benzyl}-3,9-diazaspiro[5.5]undecane trifluoroacetate] stands 710 nM.
